Test results reported in patent US7176035B2, “Protein-protein interactions and methods for identifying interacting proteins and the amino acid sequence at the site of interaction” (priority 1999, dated 2007).
Where no end group is shown, it is not given here.

Key:
~41 kDa protein = assay: Resynthesized high affinity hexapeptides incubated with total cell lysate; format: binding; details: total cell lysate from [35S]methionine labeled cells (FIG. 11); level rises with longer incubation
Procedure: Two high affinity binding sequences ^658RSSLIR^663 (SEQ ID NO: 7) and ^669SVRGSQ^674 (SEQ ID NO: 8) from HP-gp1 linker domain were resynthesized and incubated with total cell lysate from [^35S] methionine metabolically labeled cells following 24 hour or 48 hour incubation times. Bound proteins were eluted from peptide-fixed rods and resolved by 10% SDS-PAGE. The migration of the molecular weight markers is shown to the left of the figure.
For a binding assay, [^35S] methionine labeled proteins from total cell lysate were mixed with equal volume of 3–6% BSA in phosphate buffered saline (PBS) and incubated with overlapping hexapeptides covalently fixed to polypropylene rods. The peptides and total cell lysate were incubated overnight at 4° C. The rods were then removed and washed four times in PBS. The bound proteins were eluted by incubating the peptide-fixed rods in 1×SDS sample buffer for 60 minutes at room temperature with shaking. The peptides-fixed rods, were regenerated by incubation in PBS, containing 2% SDS and 1 mM β-mercaptoethanol at 65° C. in a sonicator for 30 minutes. Following the latter incubation, the rods were washed for five minutes in 65° C. ionized water and two minutes in 65° C. methanol. The peptides-fixed rods are now ready for the next round of screening. […]

[1] = test system: 57 kDa protein (α- and β-tubulins); assay: Binding of rod-fixed overlapping hexapeptides of P-gp linker domains to [35S]methionine-labeled total cell lysate, SDS-PAGE; details: for binding affinity to the 57 kDa protein in the overlapping hexapeptide scan: total cell lysate from [35S]methionine labeled CEM or CEM/VLB1.0 cells, bound proteins eluted with SDS, 10% SDS-PAGE; for binding of resynthesized hexapeptide to the 57 kDa protein: total cell lysate from [35S]methionine labeled cells, 24 hour or 48 hour incubation (FIG. 11)
Procedure: Pre-derivatized plastic rods, active ester and polypropylene trays were purchased from Cambridge Research Biochemicals (Valley Stream, N.Y.). Peptides were synthesized on solid polypropylene rods as previously described (36, 37). Briefly, the F-moc protecting group on the prederivatized polypropylene rods as solid support (arranged in a 96-well formate) was removed by incubation with 20% (v/v) piperidine in dimethylformamide (DMF) for 30 minutes with shaking. Following the deprotection of the β-alanine spacer on the polypropylene rods, Fmoc protected amino acids were dissolved in HOBt/DMF and added to the appropriate wells containing deprotected rods. Coupling of amino acids was allowed to take place for 18 hours at room temperature after which the rods were washed in DMF (1×2 minutes), methanol (4×2 minutes), and DMF (1×2 minutes). The coupling of the second amino acid required the deprotection of the F-moc amino protecting group of the first amino acid and incubation of the rods with the second preactivated F-moc-protected amino acids (pentafluorophenyl derivatives). The reaction was allowed to proceed for 18 hours, and the rods were removed and washed as indicated above. The same steps were repeated for each amino acid coupling until the sixth amino acid was coupled. Following the last coupling step, the F-moc N-terminal protecting group was removed with 20% piperidine/DMF and the free amino group acetylated for 90 minutes in an acetylation cocktail containing acetic anhydride:diisopropylethylamine (DIEA):DMF (50:1:50 v/v/v). The side chain protecting groups of the N-terminal acetylated hexapeptides onto the polypropylene rods were removed by incubation in a cleavage mixture containing trifluoroacetic acid:phenol:ethandithiol (95:2.5:2.5 v/v/v) for 4 hours at room temperature. After the cleavage step the rods were washed with dichloromethane (DCM) and neutralized in 5% (v/v) DIEA/DCM. The deprotected peptide-coupled rods were washed in DCM, methanol and vacuum dried for 18 hours.
Following metabolic labeling of proteins with [^35S] methionine, cells were washed 3 times with phosphate buffered saline (PBS) and resuspended in hypotonic buffer (10 mM KCl, 1.5 mM MgCl2, 10 mM Tris-HCl, pH 7.4) containing protease inhibitors (2 mM PMSF, 3 μg/ml Leupeptin, 4 μg/ml pepstatin A and 1 μg/ml aprotinin) and kept on ice for 30 minutes. […] The amount of protein in the above samples was determined by the method of Lowry (69).
For a binding assay, [^35S] methionine labeled proteins from total cell lysate were mixed with equal volume of 3–6% BSA in phosphate buffered saline (PBS) and incubated with overlapping hexapeptides covalently fixed to polypropylene rods. […] The peptides-fixed rods are now ready for the next round of screening. […]

| Substance | binding of resynthesized hexapeptide to a ~41 kDa protein (~41 kDa protein) | binding affinity to the 57 kDa protein in the overlapping hexapeptide scan [1] | binding of resynthesized hexapeptide to the 57 kDa protein [1] |
| --- | --- | --- | --- |
| RSSLIR: N-terminal acetylated hexapeptide from the second region of HP-gp1 linker domain, covalently fixed to polypropylene rods (Ac-RSSLIR; also: attached to polypropylene rods; listed as Homo sapiens) | bound specifically | bound with the highest affinity to the 57 kDa protein | bound specifically to the 57 kDa protein |
| SVRGSQ: N-terminal acetylated hexapeptide from the second region of HP-gp1 linker domain, covalently fixed to polypropylene rods (Ac-SVRGSQ; also: attached to polypropylene rods; listed as Homo sapiens) | bound specifically | bound with the highest affinity to the 57 kDa protein | bound specifically to the 57 kDa protein |
